Literature values, collected in patent US20180028591A1, “MALE AND FEMALE INFERTILITY HERBAL COMPOSITION” (priority 2016, published 2018).

Test system: rabbit penile tissue
Details: by nitric oxide and PDE5 activity

Compound: COc1ccc(-c2oc3c(CC=C(C)C)c(O[C@@H]4O[C@H](CO)[C@@H](O)[C@H](O)[C@H]4O)cc(O)c3c(=O)c2O[C@@H]2O[C@@H](C)[C@H](O)[C@@H](O)[C@H]2O)cc1 [icariin]
- relaxation of penile tissue: relax rabbit penile tissue
